Measured values reported in paper PMC5740067 (Scientific Reports, 2017).
“Also recorded” adds a separate entry of the source. Where two headings read alike, the source gives them in different places.

How the values were obtained:
[1] = biological target: T1, OccJ WT (Agrobacterium tumefaciens, UniProt P0A4F8); experiment: OccJ WT ligand binding, isothermal titration microcalorimetry; conditions: ITC, 20 °C
T1 construct: The mature PBP OccJ (256 aa without the signal peptide) expression plasmid was obtained by cloning the occJ gene lacking the first twenty residues; hexahistidine (C); made in house; host or cells: E. coli BL21
Method: (§1) Isothermal titration microcalorimetry experiments were performed with an ITC200 isothermal titration calorimeter from MicroCal (GE Healthcare). The experiments were carried out at 20 °C. Protein concentration in the microcalorimeter cell (0.2 mL) varied from 20 to 150 µM. Nineteen injections of 2 µL of ligand solution (amino acids, opines and octopine derivatives) at concentration ranging from 240 µM to 1.5 mM were performed at intervals of 180 s while stirring at 500 rpm. The experimental data were fitted to theoretical titration curves with software supplied by MicroCal (ORIGIN®). This software uses the relationship between the heat generated by each injection and ΔH (enthalpy change in kcal/mol), Ka (the association binding constant in M^−1), n (the number of binding sites), total protein concentration and free and total ligand concentrations.

[2] = biological target: T2, NocT WT (Agrobacterium fabrum, UniProt P35120); type: binding, Agrobacterium tumefaciens; conditions: ITC, 20 °C
T2 construct: Cloning of mature OccJ, NocT-G97S, OccJ-S91G, OccJ-N202D, LAO and LAO-Q122A; made in house
Method: as §1

[3] = biological target: T1, OccJ WT; experiment: biochemical; type: binding
Method: (§2) Binding of ligands to OccJ, NocT, LAO and protein mutants was monitored by autofluorescence by exciting the protein at a wavelength of 295 nm and monitoring the quenching of fluorescence emission of tryptophans at 335 nm. All experiments were performed at 20 °C in 96 wells plates (1/2 Area Plate-96F, Perkin Elmer) using Tecan Infinite M1000 reader (Tecan), in 50 mM Tris-HCl pH 8.0, 150 mM NaCl buffer with a fixed amount of proteins (1 µM) and increasing concentrations of ligand. […] The data were analysed using Origin® 7 software and fitted to the equation f = ΔFluorescencemax * abs(x)/(K D + abs(x)).

[4] = biological target: T2, NocT WT; type: binding, Agrobacterium tumefaciens; conditions: fluorescence titration; 20 °C; pH 8.0; octopine family members and analogues; read-out: Kd (F)
Method: as §2

[5] = biological target: LAO; design: method as in PMID 1400387; conditions: ref [20]; cited from earlier work
[6] = biological target: T3, OccJ S91G (Agrobacterium tumefaciens, UniProt P0A4F8, S91G); experiment: OccJ S91G ligand binding, fluorescence titration; conditions: intrinsic protein fluorescence titration; 20 °C; pH 8.0
T3 construct: The mature LAO expression plasmid, LAO-Q122A, OccJ-S91G and OccJ-N202D were chemically synthesized; pET-28a); host or cells: E. coli BL21
Method: as §2

[7] = biological target: T2, NocT WT; conditions: cited from earlier work; for K D, amino acids: F/ITC, ref [6]
[8] = biological target: T4, NocT G97S (Agrobacterium fabrum, UniProt P35120, G97S); type: binding, Agrobacterium tumefaciens; conditions: intrinsic protein fluorescence titration; 20 °C; pH 8.0
T4 construct: Cloning of mature OccJ, NocT-G97S, OccJ-S91G, OccJ-N202D, LAO and LAO-Q122A; made in house; host or cells: E. coli BL21

[9] = biological target: T5, LAO WT (Salmonella typhimurium, UniProt P02911); experiment: biochemical; type: binding, Salmonella enterica
T5 construct: The mature LAO expression plasmid, LAO-Q122A, OccJ-S91G and OccJ-N202D were chemically synthesized; pET-28a); host or cells: E. coli BL21
Method: as §1

[10] = biological target: T6, LAO Q122A (Salmonella typhimurium, UniProt P02911, Q144A); experiment: LAO Q122A ligand binding, ITC; design: species or system Salmonella enterica
T6 construct: The mature LAO expression plasmid, LAO-Q122A, OccJ-S91G and OccJ-N202D were chemically synthesized; pET-28a); host or cells: E. coli BL21
Method: as §1

[11] = biological target: T7, OccJ N202D (Agrobacterium tumefaciens, UniProt P0A4F8, N202D); type: binding; conditions: ITC, 20 °C
T7 construct: The mature LAO expression plasmid, LAO-Q122A, OccJ-S91G and OccJ-N202D were chemically synthesized; pET-28a); host or cells: E. coli BL21
Method: as §1

[12] = intrinsic protein fluorescence titration, 20 °C, 50 mM Tris-HCl pH 8.0, 150 mM NaCl, 1 µM protein, read-out: K D (F)
[13] = intrinsic protein fluorescence titration, 20 °C, 50 mM Tris-HCl pH 8.0, 150 mM NaCl, 1 µM protein
[14] = fluorescence titration, read-out: apparent dissociation constant K D

T5 sequence (P02911 23-260): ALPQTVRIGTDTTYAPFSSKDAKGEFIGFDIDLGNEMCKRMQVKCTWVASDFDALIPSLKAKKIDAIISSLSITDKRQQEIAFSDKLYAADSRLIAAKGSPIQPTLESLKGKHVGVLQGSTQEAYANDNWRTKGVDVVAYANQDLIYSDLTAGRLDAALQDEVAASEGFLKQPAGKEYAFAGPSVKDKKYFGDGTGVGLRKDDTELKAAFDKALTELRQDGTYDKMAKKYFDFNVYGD
T6 sequence (P02911 23-260 Q144A): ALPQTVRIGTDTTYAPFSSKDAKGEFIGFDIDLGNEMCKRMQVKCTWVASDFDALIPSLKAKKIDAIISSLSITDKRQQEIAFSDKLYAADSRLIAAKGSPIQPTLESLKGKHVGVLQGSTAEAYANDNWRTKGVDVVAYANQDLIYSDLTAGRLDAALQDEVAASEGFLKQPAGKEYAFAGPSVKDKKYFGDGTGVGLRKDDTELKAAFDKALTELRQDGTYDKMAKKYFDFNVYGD
T1 sequence (P0A4F8 21-276): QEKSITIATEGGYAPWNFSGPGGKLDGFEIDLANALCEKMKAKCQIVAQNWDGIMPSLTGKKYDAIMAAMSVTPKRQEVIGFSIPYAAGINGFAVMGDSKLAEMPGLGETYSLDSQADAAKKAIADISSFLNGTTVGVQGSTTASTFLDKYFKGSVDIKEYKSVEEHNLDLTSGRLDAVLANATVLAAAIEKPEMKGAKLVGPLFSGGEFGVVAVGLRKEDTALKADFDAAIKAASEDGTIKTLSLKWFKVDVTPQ
T2 sequence (P35120 26-283): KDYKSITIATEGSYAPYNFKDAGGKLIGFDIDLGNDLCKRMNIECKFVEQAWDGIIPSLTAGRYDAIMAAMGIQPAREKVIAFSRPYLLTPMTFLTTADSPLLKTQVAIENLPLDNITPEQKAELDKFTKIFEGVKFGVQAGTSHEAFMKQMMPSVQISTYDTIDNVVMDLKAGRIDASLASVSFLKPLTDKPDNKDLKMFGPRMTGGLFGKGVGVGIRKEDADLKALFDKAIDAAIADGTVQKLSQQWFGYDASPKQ
T7 sequence (P0A4F8 21-276 N202D): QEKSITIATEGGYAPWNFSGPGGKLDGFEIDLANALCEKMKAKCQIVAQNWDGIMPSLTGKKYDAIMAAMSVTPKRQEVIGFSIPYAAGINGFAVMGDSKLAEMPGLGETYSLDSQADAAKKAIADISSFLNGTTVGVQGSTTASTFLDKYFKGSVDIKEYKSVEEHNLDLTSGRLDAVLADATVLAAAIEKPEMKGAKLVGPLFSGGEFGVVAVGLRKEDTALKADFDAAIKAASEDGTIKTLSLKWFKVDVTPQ
T3 sequence (P0A4F8 21-276 S91G): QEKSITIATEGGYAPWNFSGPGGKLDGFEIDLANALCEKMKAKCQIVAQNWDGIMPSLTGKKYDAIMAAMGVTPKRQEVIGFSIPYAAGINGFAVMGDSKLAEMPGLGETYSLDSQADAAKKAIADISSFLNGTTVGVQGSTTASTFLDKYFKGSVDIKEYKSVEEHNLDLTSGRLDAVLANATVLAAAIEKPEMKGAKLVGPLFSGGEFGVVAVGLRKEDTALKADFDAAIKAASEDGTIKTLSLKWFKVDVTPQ
T4 sequence (P35120 26-283 G97S): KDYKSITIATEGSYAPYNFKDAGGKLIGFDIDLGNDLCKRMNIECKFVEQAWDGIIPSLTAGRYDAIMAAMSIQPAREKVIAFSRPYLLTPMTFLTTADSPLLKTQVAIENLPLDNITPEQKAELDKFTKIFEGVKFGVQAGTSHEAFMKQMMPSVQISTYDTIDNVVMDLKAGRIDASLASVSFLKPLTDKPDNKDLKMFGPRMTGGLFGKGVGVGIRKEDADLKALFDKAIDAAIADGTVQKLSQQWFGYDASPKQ

| Compound | Enthalpy (ΔH) [1] | Entropic contribution (-TΔS) [1] | Entropy (ΔS) [1] | Free enthalpy (ΔG) [1] | Kd [1] | Enthalpy (ΔH) [2] | Entropic contribution (-TΔS) [2] | Entropy (ΔS) [2] | Free enthalpy (ΔG) [2] | Kd [2] | Kd [3, 12] | Kd [4] | K D (F) [6] | further results |
| --- | --- | --- | --- | --- | --- | --- | --- | --- | --- | --- | --- | --- | --- | --- |
| N=C(N)NCCCC[C@H](NCC(=O)O)C(=O)O [homo-noroctopine] | -4.115 kcal/mol | -2.207 kcal/mol | 7.53 cal/mol/deg | -6.322 kcal/mol | 19.3 ± 1.4 µM | -1.195 kcal/mol | -4.309 kcal/mol | 14.7 cal/mol/deg | -5.504 kcal/mol | 79 ± 14 µM | 4.63 ± 0.42 µM | 21.3 ± 2.1 µM |  |  |
| NCCC[C@H](N)C(=O)O [ornithine] | -1.102 kcal/mol | -4.778 kcal/mol | 16.3 cal/mol/deg | -5.88 kcal/mol | 40.5 µM |  |  |  |  |  |  |  | can no longer bind | previous reported affinity [5]: nanomolar range; Kd [3]: 31.2 ± 3.5 µM |
| N[C@@H](Cc1c[nH]cn1)C(=O)O [histidine] |  |  |  |  |  |  |  |  |  |  |  |  |  | K D (F) [3, 13]: No fluorescence intensity change was detected |
| NCCC[C@H](NCC(=O)O)C(=O)O [noroctopinic acid] | -7.202 kcal/mol | -1.934 kcal/mol | 6.60 cal/mol/deg | -9.136 kcal/mol | 0.15 ± 0.01 µM | 0.62 kcal/mol | -6.83 kcal/mol | 23.3 cal/mol/deg | -6.21 kcal/mol | 23 ± 5 µM |  | 19.3 ± 1.37 µM |  |  |
| CC(N[C@@H](Cc1cnc[nH]1)C(=O)O)C(=O)O (some centres unmarked) [histopine] | -0.854 kcal/mol | -3.81 kcal/mol | 13 cal/mol/deg | -4.664 kcal/mol | 326 µM |  |  |  |  |  | 33.1 ± 3.5 µM | 84.4 ± 6.7 µM |  | K D (F) [3, 13]: micromolar range |
| homo-octopine | -7.611 kcal/mol | -0.806 kcal/mol | 2.75 cal/mol/deg | -8.417 kcal/mol |  | -3.832 kcal/mol | -2.222 kcal/mol | 7.58 cal/mol/deg | -6.054 kcal/mol |  |  |  |  |  |
| NCCCC[C@H](N)C(=O)O [L-lysine] | -4.92 kcal/mol | -0.645 kcal/mol | 2.20 cal/mol/deg | -5.565 kcal/mol | 71 µM |  |  |  |  |  |  |  | can no longer bind | previous reported affinity [5]: nanomolar range; Kd [3]: 7.5 ± 2.1 µM; K D, amino acids [7]: does not interact |
| NC(N)=NCCC[C@H](N[C@H](CCC(=O)O)C(=O)O)C(=O)O [nopaline] |  |  |  |  |  |  |  |  |  |  |  |  | not a ligand | K D (F) [3, 13]: No fluorescence intensity change was detected; also recorded: no interaction; K D (F) [8]: abolished the nopaline binding ability; Kd ([7]; fluorescence titration, octopine and nopaline, ref [6],[14], read-out: K D (F)): 3.7 ± 0.6 µM |
| C[C@@H](N[C@@H](CCCCN)C(=O)O)C(=O)O [lysopine] | -4.832 kcal/mol | -4.455 kcal/mol | 15.2 cal/mol/deg | -9.287 kcal/mol | 0.11 ± 0.02 µM |  |  |  |  |  | 0.14 ± 0.01 µM | 11.2 ± 3.5 µM |  | Kd [3, 14]: 0.14 ± 0.01 µM |
| C[C@@H](N[C@@H](CCCN)C(=O)O)C(=O)O [octopinic acid] | -9.547 kcal/mol | -0.41 kcal/mol | 1.40 cal/mol/deg | -9.957 kcal/mol | 0.038 ± 0.007 µM | -3.658 kcal/mol | -3.517 kcal/mol | 12.0 cal/mol/deg | -7.175 kcal/mol | 4.4 ± 0.4 µM | 0.017 ± 0.003 µM | 1.8 ± 0.3 µM |  | Kd [3, 14]: 0.017 ± 0.003 µM |
| NC(N)=NCCC[C@H](NCC(=O)O)C(=O)O [noroctopine] | -4.804 kcal/mol | -4.367 kcal/mol | 14.8 cal/mol/deg | -9.171 kcal/mol | 0.15 ± 0.01 µM | 0.872 kcal/mol | -6.39 kcal/mol | 21.8 cal/mol/deg | -5.518 kcal/mol | 78 ± 9 µM | 0.19 ± 0.05 µM | 33.4 ± 2.7 µM |  | fold better affinity of OccJ compared with arginine or ornithine alone ([3]; opine analogue versus its amino acid): 10 fold |
| N=C(N)NCCC[C@H](N)C(=O)O [L-arginine] | -4.208 kcal/mol | -1.755 kcal/mol | 5.99 cal/mol/deg | -5.964 kcal/mol | 35.7 µM |  |  |  |  |  |  |  | can no longer bind | previous reported affinity [5]: nanomolar range; Kd [9]: 0.024 ± 0.002 µM; Enthalpy (ΔH) ([9]; ITC, 20 °C): -10.91 kcal/mol; Entropic contribution (-TΔS) ([9]; ITC, 20 °C): 0.703 kcal/mol; Entropy (ΔS) ([9]; ITC, 20 °C): -2.4 cal/mol/deg; Free enthalpy (ΔG) ([9]; ITC, 20 °C): -10.207 kcal/mol; Kd [3]: 7.2 ± 1 µM; Kd [10]: 0.12 ± 0.01 µM; fold lower affinity of LAO-Q122A compared with WT ([10]; ITC): 5 fold; Enthalpy (ΔH) ([10]; ITC, 20 °C): -6.853 kcal/mol; Entropic contribution (-TΔS) ([10]; ITC, 20 °C): -2.433 kcal/mol; Entropy (ΔS) ([10]; ITC, 20 °C): 8.3 cal/mol/deg; Free enthalpy (ΔG) ([10]; ITC, 20 °C): -9.286 kcal/mol; Enthalpy (ΔH) [11]: -0.632 kcal/mol; Entropic contribution (-TΔS) [11]: -5.696 kcal/mol; Entropy (ΔS) [11]: 19.3 cal/mol/deg; Free enthalpy (ΔG) [11]: -6.328 kcal/mol; K D, amino acids [7]: does not interact |
